Measurements published in patent EP3833345B1, “SMALL MOLECULE-INHIBITORS OF 6-PHOSPHOFRUCTO-1-KINASE FOR REDUCING LACTATE GENERATION BY CANCER CELLS” (Kemijski Institut, priority 2018, dated 2020).

How the values were obtained:
Assay type in all cases: cell-based
Caco-2 cells [1] = experiment: lactate excretion by Caco-2 cells; conditions: single addition, different concentrations (20-80 µM)
Procedure: Preliminary in vivo tests were run by measuring lactate production by three different tumorigenic cell lines. […] For the experiment, the following tumorigenic cells lines originating from different tumours were tested: Caco-2 cells (Figure 10a), originating from colorectal adenoma carcinoma; COLO 829 cells (Figure 10b), isolated from melanoma; and MDA-MB-231 cells (Figure 10c) derived from metastatic phase of mammary/breast cancer.
(§1) Lactate generation, growth yield and survival under normal and inhibitory conditions of three different tumorigenic cells lines were determined in more detailed measurements. […] Cytotoxicity was measured by the Lactate dehydrogenase (LDH) kit (Roche).
(§2) Therefore, the influence of selected inhibitors was assessed by sequential re-insertion of low concentrations of inhibitors at indicated time points. The inhibitors were first added to the medium 8 hours after the inoculation followed by periodically additions at 24-hour intervals (marked by arrows).

COLO 829 cells [2] = experiment: lactate excretion by COLO 829 cells
Procedure: (§3) Preliminary in vivo tests were run by measuring lactate production by three different tumorigenic cell lines. Again, 100 µM concentrations of tested compounds have been added to the medium. For the experiment, the following tumorigenic cells lines originating from different tumours were tested: Caco-2 cells (Figure 10a), originating from colorectal adenoma carcinoma; COLO 829 cells (Figure 10b), isolated from melanoma; and MDA-MB-231 cells (Figure 10c) derived from metastatic phase of mammary/breast cancer. All adherent cell lines were grown in the RPMI 1640 GlutaMAX substrate (Thermo Fisher) supplemented with 10% FBS.
On the basis of preliminary results, inhibitors No. 23, 29, 30 and 31 were tested on COLO 829 cells. […] No significant discrepancies of total cell numbers in respect to the control were observed due to the different concentrations of inhibitors in the medium (Figure 13e). The average percent of dead COLO 829 cells in the control and in the presence of different concentrations of inhibitors were as follows: inh. 23 (9,23±0,6%), inh. 29 (9,31±0,73%), inh. 30 (8,27±0,49%), inh. 31 (8,26±0,38%). Additionally, cytotoxicity of inh. 3 (5,01±1,08%) and 9 (3,65±0,78%) for COLO 829 cells were also determined. No dose dependent decrease of survival was observed by any inhibitor.
as §2, with “A decrease in inhibitory effectiveness of some compounds was observed after certain period of time (Example 11). […] Therefore,” for “Therefore,”
No significant cytostatic (Figure 16f) of cytotoxic effect of inhibitors could be detected after 92 hours of incubation despite of sequential addition of various concentrations of inhibitors. The following average percentages of dead cells were perceived in the medium without and media with inh. 3 (1,95±0,15%) inh. 9 (1,70±0,14%), inh. 23 (2,40±0,09%), inh. 29 (1,66±0,25%) and inh. 30 (1,38±0,18%). No detrimental effects of increased inhibitors concentrations on cell deaths have been observed.

MDA-MB-231 cells [3] = experiment: lactate excretion by MDA-MB-231 cells; conditions: single addition, different concentrations
Procedure: as §3
(§4) Inhibitors No. 23, 29, 30 and 31 were tested for preventing lactate generation by the MDA-MB-231 cells. […] No significant discrepancies of total cell numbers were observed (Figure 14e) due to the different concentrations of inhibitors in the medium. […] The average percent of dead MDA-MB-231 cells in the control and in the presence of different concentrations of inhibitors were as follows: inh. 23 (2,98±0,2%), inh. 29 (3,37±0,39%), inh. 30 (3,4±0,21%), inh. 31 (6,87±0,44%). Additionally, cytotoxicity of inh. 3 (7,2±0,47%) and 9 (6,59±0,29%) for MDA-MB-231 cells were also determined. No dose dependent decrease of survival was observed by any inhibitor.
as §2, with “A decrease in inhibitory effectiveness of some compounds was observed after certain period of time (Example 11). […] Therefore,” for “Therefore,”
(§5) In MDA-MB-231 calls similar results to those found in Caco-2 cells were observed. […] No significant cytostatic (Figure 17f) or cytotoxic effect of inhibitors could be detected after 92 hours of incubation despite of sequential addition of various concentrations of inhibitors. The following average percentages of dead cells were perceived in the medium without and with inh. 3 (2,05±0,18%), inh. 9 (1,85±0,05%), inh. 23 (2,20±0,15%), inh. 29 (1,54±0,16%) and inh. 30 (2,00±0,18%). No detrimental effects of increased inhibitors concentrations on cell deaths have been observed.

Caco-2 cells [4] = experiment: cytotoxicity in Caco-2 cells (lactate dehydrogenase (LDH) kit)
Procedure: as §1

COLO 829 cells [5] = experiment: cytotoxicity in COLO 829 cells (LDH kit)
Procedure: as §1

MDA-MB-231 cells [6] = experiment: cytotoxicity in MDA-MB-231 cells (LDH kit)
Procedure: as §1
Inhibitors No. 23, 29, 30 and 31 were tested for preventing lactate generation by the MDA-MB-231 cells.

Caco-2 cells [7] = experiment: total cell numbers of Caco-2 cells at end of incubation; conditions: single addition, end of incubation (92 hours)
Procedure: as §1

MDA-MB-231 cells [8] = experiment: total cell numbers of MDA-MB-231 cells at end of incubation; conditions: single addition, different concentrations
Procedure: as §4, §5

[9] = sequential addition at 24-hour intervals, 92 hours, average over medium without and with inhibitor
[10] = single addition, average over control and different concentrations of inhibitor

For `O=C(CCS(=O)(=O)c1ccc(Cl)cc1)Nc1nnc(-c2ccno2)o1` [Inhibitor No. 29, 3-(4-chlorophenyl)sulfonyl-N-(5-isoxazol-5-yl-1,3,4-oxadiazol-2-yl)propanamide], the “lactate generation by Caco-2 cells” value (Caco-2 cells [1]) was “effectively reduced the lactate accumulation in the medium in a dose dependent manner”, the “lactate formation in COLO 829 cells, sequential re-insertion” value (COLO 829 cells [2]; inhibitor added 8 hours after inoculation, then at 24-hour intervals, low concentrations (from 10 µM)) was “slightly weaker inhibitions” and the “lactate excretion by COLO 829 cells” value (COLO 829 cells [2]; single addition, different concentrations) was “strongest reductions of lactate excretion”. The “lactate excretion by MDA-MB-231 cells” value (MDA-MB-231 cells [3]) was “dose dependent inhibition of lactate excretion”, the “average percentages of dead cells, Caco-2, sequential re-insertion” value (Caco-2 cells [4]; [9]) was 4,57±0,04% and the “average percent of dead cells, Caco-2” value (Caco-2 cells [4]; [10]) was 4,95±0,27%. For the same compound, the “average percentages of dead cells, COLO 829, sequential re-insertion” value (COLO 829 cells [5]; [9]) was 1,66±0,25%, the “average percent of dead COLO 829 cells” value (COLO 829 cells [5]; [10]) was 9,31±0,73% and the “average percentages of dead cells, MDA-MB-231, sequential re-insertion” value (MDA-MB-231 cells [6]; [9]) was 1,54±0,16%. The “average percent of dead MDA-MB-231 cells” value (MDA-MB-231 cells [6]; [10]) was 3,37±0,39%, the “total cell numbers, Caco-2” value (Caco-2 cells [7]) was “minor dose dependent reductions in total cell numbers” and the “total cell numbers, MDA-MB-231” value (MDA-MB-231 cells [8]) was “dose dependent decrease of cell numbers”.
